Assay results reported in patent US7829560B2, “1,4-disubstituted naphthalenes as inhibitors of P38 MAP kinase” (Arqule, Inc., priority 2004, dated 2010).

Tests used:
p38α = molecular target: T1, p38α (Homo sapiens, UniProt Q16539); assay: p38 MAP Kinase assay: inhibition of ATF2 phosphorylation, ELISA; assay type: biochemical; conditions: for IC50: ATF2 phosphorylation, read-out: [ENZ] P38 ALPHA, IC50, ELISA; for inhibition at 10 µM: substrate ATF2, read-out: [ENZ] P38 ALPHA, PCT INH, ELISA (10 uM;ATF2) (Percent)
T1 construct: p38 MAP Kinases are recombinant human full-length proteins with an amino-terminal GST fusion; GST (N); purchased Upstate Biotechnology Inc; host or cells: E. coli
Procedure, shortened: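 In vitro phosphorylation of ATF2 at Thr69 by recombinant human GST-p38 MAP kinase, read by anti-phospho-ATF2 ELISA at 450 nm. Enzyme and compound pre-incubated 15 min at RT, then 30 min reaction at 37 °C with 40 μM ATP and 1.25 μM ATF2; buffer with or without 1% HSA (Method II or I).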

[1] = system: TNFα release from THP-1 cells; assay: Inhibition of TNFα release from LPS-stimulated THP-1 cells, ELISA; assay type: cell-based; conditions: Homo sapiens, THP-1, THP-1 cells, read-out: [CELL] THP-1, IC50, TNF ALPHA, ELISA
Procedure, shortened: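 TNFα released into supernatant after 18 h of 10 μg/ml LPS stimulation was quantified by ELISA and IC50 taken as 50% reduction by non-linear regression. THP-1 cells (10^6/ml; medium with 10% FBS, serum-free or 1% HSA) saw compound for 30 min at 37 °C beforehand; final DMSO ≤0.5%.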

T1 sequence (Q16539 whole entry, the tested form may be a part): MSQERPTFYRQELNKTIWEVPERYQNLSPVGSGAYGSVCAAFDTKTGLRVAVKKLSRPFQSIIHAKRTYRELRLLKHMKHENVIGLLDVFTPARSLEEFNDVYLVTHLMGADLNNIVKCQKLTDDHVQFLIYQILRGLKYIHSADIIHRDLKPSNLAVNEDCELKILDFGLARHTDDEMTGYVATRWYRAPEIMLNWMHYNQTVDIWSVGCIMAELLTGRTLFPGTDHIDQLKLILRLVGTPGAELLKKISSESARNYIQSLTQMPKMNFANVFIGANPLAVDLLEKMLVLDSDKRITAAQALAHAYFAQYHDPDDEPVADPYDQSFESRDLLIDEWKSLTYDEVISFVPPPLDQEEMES

Structure (SMILES) | IC50 (p38α) [µM] | IC50 [1] [µM] | inhibition at 10 µM (p38α) [%]
Cc1ccc(C)c(-c2cccc(C(=O)Nc3ccc(OCCN4CCOCC4)c4ccccc34)c2)c1 [Compound B287, 2′,5′-dimethyl-biphenyl-3-carboxylic acid [4-(2-morpholin-4-yl-ethoxy)-naphthalen-1-yl]-amide] | 0.934 | 5 | 
Cc1ccc(-c2cccc(C(=O)Nc3ccc(OCCN4CCOCC4)c4ccccc34)c2)cc1C [Compound B276] | > 10 | > 10 | 
Cc1cccc(-c2cccc(C(=O)Nc3ccc(OCCN4CCOCC4)c4ccccc34)c2)c1C [Compound B296] | 1.88 | 8.71 | 
CCN1CCC[C@H]1CNc1nccc(Oc2ccc(NC(=O)c3cc(F)cc(N4CCOCC4)c3)c3ccccc23)n1 [Compound B360] | 0.0225 | 0.063 | 
Cc1ccc(-c2cccc(C(=O)Nc3ccc(OCCN4CCOCC4)c4ccccc34)c2)c(C)c1 [Compound B299] | > 10 | > 10 | 
COc1ccc(-c2cccc(C(=O)Nc3ccc(OCCN4CCOCC4)c4ccccc34)c2)cc1 [Compound B284] | > 10 | > 10 | 
CC(=O)N1CCN(c2cc(C(=O)Nc3ccc(OCCN4CCOCC4)c4ccccc34)ccn2)CC1 [Compound B123, 2-(4-Acetyl-piperazin-1-yl)-N-[4-(2-morpholin-4-yl-ethoxy)-naphthalen-1-yl]-isonicotinamide] | 5.75 | 6.15 | 50.5
Cc1cccc(C(=O)Nc2ccc(OCCN3CCOCC3)c3ccccc23)c1 [Compound B56] | > 10 | > 10 | 
O=C(Nc1ccc(OCCN2CCOCC2)c2ccccc12)c1cccc(-c2ccccc2F)c1 [Compound B278, 2′-Fluoro-biphenyl-3-carboxylic acid [4-(2-morpholin-4-yl-ethoxy)-naphthalen-1-yl]-amide] | 0.935 | 3.69 | 
O=C(Nc1ccc(Oc2ccnc(N3CCC(F)(F)CC3)n2)c2ccccc12)c1cc(F)cc(N2CCOCC2)c1 [Compound B361] | 0.0555 | 0.475 | 
O=C(Nc1ccc(OCCN2CCOCC2)c2ccccc12)c1cccc(-c2ccncc2)c1 [Compound B86, N-[4-(2-Morpholin-4-yl-ethoxy)-naphthalen-1-yl]-3-pyridin-4-yl-benzamide] | 4.16 | 2.71 | 67
O=C(Nc1ccc(OCCN2CCOCC2)c2ccccc12)c1cccc(Oc2ccccc2)c1 [Compound B61] | 2.3 | > 10 | 
O=C(Nc1ccc(OCCN2CCOCC2)c2ccccc12)c1ccnc(N2CCCCC2)c1 [Compound B127, 3,4,5,6-Tetrahydro-2 H-[1,2′]bipyridinyl-4′-carboxylic acid [4-(2-morpholin-4-yl-ethoxy)-naphthalen-1-yl]-amide] | 1.88 | 0.782 | 68.5
CN(C)c1ccc(C(=O)Nc2ccc(OCCN3CCOCC3)c3ccccc23)cc1 [Compound B34] | 10.7 | > 10 | 
CCOc1ccc(Cl)cc1-c1cccc(C(=O)Nc2ccc(OCCN3CCOCC3)c3ccccc23)c1 [Compound B301] | > 10 | > 10 | 
O=C(Nc1ccc(Oc2ccnc(NCC3CCCO3)n2)c2ccccc12)c1cc(F)cc(N2CCCCC2)c1 (centres unmarked) [Compound B386, 3-Fluoro-5-piperidin-1-yl-N-[4-({2-[(tetrahydrofuran-2-ylmethyl)amino]pyrimidin-4-yl}oxy)-1-naphthyl]benzamide] | 0.0018 | 0.0262 | 
Cc1cc(C(=O)Nc2ccc(OCCN3CCOCC3)c3ccccc23)cc(N2CCCC(C)C2)n1 (centres unmarked) [Compound B153, 3,6′-Dimethyl-3,4,5,6-tetrahydro-2H-[1,2′]bipyridinyl-4′-carboxylic acid [4-(2-morpholin-4-yl-ethoxy)-naphthalen-1-yl]-amide] | 0.622 | 1.03 | 88
CC(=O)N1CCN(CCOc2ccc(NC(=O)c3cc(F)cc(N4CCCCC4)c3)c3ccccc23)CC1 [Compound B167, N-{4-[2-(4-Acetyl-piperazin-1-yl)-ethoxy]-naphthalen-1-yl}-3-fluoro-5-piperidin-1-yl-benzamide] | 0.851 | > 10 | 
CC1CCCN1c1nccc(Oc2ccc(NC(=O)c3cc(F)cc(N4CCOCC4)c3)c3ccccc23)n1 (centres unmarked) [Compound B355] | 0.0687 | 0.878 | 
CN(C)C(=O)[C@@H]1CCCN1c1nccc(Oc2ccc(NC(=O)c3cc(F)cc(N4CCOCC4)c3)c3ccccc23)n1 [Compound B356] | 0.264 | > 1 | 
O=C(Nc1ccc(OCCN2CCOCC2)c2ccccc12)c1cc(F)cc(N2CCC3CCCCC3C2)c1 (centres unmarked) [Compound B213] | > 10 | > 10 | 
O=C(Nc1ccc(OCCN2CCOCC2)c2ccccc12)c1ccnc(N2CCC3(CC2)OCCO3)c1 [Compound B44, 2-(1,4-Dioxa-8-aza-spiro[4.5]dec-8-yl)-N-[4-(2-morpholin-4-yl-ethoxy)-naphthalen-1-yl]-isonicotinamide] | > 10 | 1.01 | 

Structure (SMILES) | IC50 (p38α) [µM] | IC50 [1] [µM] | inhibition at 10 µM (p38α) [%]
N#Cc1cccc(-c2cccc(C(=O)Nc3ccc(OCCN4CCOCC4)c4ccccc34)c2)c1 [Compound B110] | > 1 | 6.43 | 61
Cc1cc(F)ccc1-c1cccc(C(=O)Nc2ccc(Oc3ccnc(NCC(C)(C)CN(C)C)n3)c3ccccc23)c1 [Compound B314, 4′-Fluoro-2′-methyl-biphenyl-3-carboxylic acid {4-[2-(3-dimethylamino-2,2-dimethyl-propylamino)-pyrimidin-4-yloxy]-naphthalen-1-yl}-amide] | 0.001 | 0.0412 | 
O=C(Nc1ccc(OCCN2CCOCC2)c2ccccc12)c1cnc(N2CCOCC2)c2ccccc12 [Compound B28] | > 100 | > 10 | 
N#Cc1ccc(-c2cccc(C(=O)Nc3ccc(OCCN4CCOCC4)c4ccccc34)c2)cc1 [Compound B285] | > 10 | 9.79 | 
COc1cccc(-c2cccc(C(=O)Nc3ccc(OCCN4CCOCC4)c4ccccc34)c2)c1OC [Compound B292] | > 10 | > 10 | 
CCOc1cccc(-c2cccc(C(=O)Nc3ccc(OCCN4CCOCC4)c4ccccc34)c2)c1 [Compound B286] | > 10 | > 10 | 
O=C(Nc1ccc(OCCN2CCOCC2)c2ccccc12)c1cc(N2CCOCC2)ccc1Cl [Compound B41] | > 10 | > 10 | 
O=C(Nc1ccc(OCCN2CCCCC2)c2ccccc12)c1ccc(CN2CCOCC2)cc1 [Compound B2] | > 10 | > 10 | 
O=C(Nc1ccc(OCCN2CCOCC2)c2ccccc12)c1ccc(N2CCOCC2)nc1 [Compound B30] | > 10 | > 10 | 
N#CNc1nccc(Oc2ccc(NC(=O)c3cc(F)cc(N4CCOCC4)c3)c3ccccc23)n1 [Compound B330, N-(4-{[2-(Cyanoamino)pyrimidin-4-yl]oxy}-1-naphthyl)-3-fluoro-5-morpholin-4-ylbenzamide] | 0.0515 | > 1 | 
Cc1cc(COc2ccc(NC(=O)c3cc(F)cc(N4CCC(C)CC4)c3)c3ccccc23)no1 [Compound B243] | > 10 | > 10 | 
CC(C)Nc1nccc(Oc2ccc(NC(=O)c3cc(F)cc(N4CCCCC4)c3)c3ccccc23)n1 [Compound B396, 3-Fluoro-N-(4-{[2-(isopropylamino)pyrimidin-4-yl]oxy}-1-naphthyl)-5-piperidin-1-ylbenzamide] | 0.006 | 0.201 | 
CN(C)c1cccc(C(=O)Nc2ccc(OCCN3CCOCC3)c3ccccc23)c1 [Compound B33] | 29.8 | > 10 | 
O=C(Nc1ccc(OCCN2CCOCC2)c2ccccc12)c1cc(F)cc(N2Cc3ccccc3C2)c1 [Compound B212] | > 10 | > 10 | 
O=C(Nc1ccc(OCCN2CCOCC2)c2ccccc12)c1ccnc(N2CCOCC2)c1 [Compound B122, 2-Morpholin-4-yl-N-[4-(2-morpholin-4-yl-ethoxy)-naphthalen-1-yl]-isonicotinamide] | 3.52 | 2.1 | 73.5
Cc1cccc(C(=O)Nc2ccc(OCCN3CCOCC3)c3ccccc23)c1Cl [Compound B82] |  | 10.7 | 41.3
O=C(Nc1ccc(OCCN2CCOCC2)c2ccccc12)c1cc(F)cc(N2CCc3ccccc3C2)c1 [Compound B200] | > 10 | > 10 | 
C[C@@H]1CN(CCOc2ccc(NC(=O)c3cccc(N4CCOCC4)c3)c3ccccc23)C[C@H](C)O1 [Compound B19] | 8.96 | > 10 | 65
COc1cccc(OC)c1-c1cccc(C(=O)Nc2ccc(OCCN3CCOCC3)c3ccccc23)c1 [Compound B108] | > 10 | 2.26 | 42
CCOC(=O)N1CCC(Nc2nccc(Oc3ccc(NC(=O)c4cc(F)cc(N5CCCCC5)c4)c4ccccc34)n2)CC1 [Compound B401, Ethyl-4-{[4-({4-[(3-fluoro-5-piperidin-1-ylbenzoyl)amino]-1-naphthyl}oxy)pyrimidin-2-yl]amino}piperidine-1-carboxylate] | 0.0256 | 1.1 | 
O=C(Nc1ccc(OCCN2CCSCC2)c2ccccc12)c1cccc(N2CCOCC2)c1 [Compound B20] | 5.55 | > 10 | 73.5
